Measurements from patent publication US20240270821A1, “GIP/GLP1/GCG TRI-RECEPTOR AGONISTS AND USES THEREOF” (priority 2023, published 2024).
Starred links: 1 amine or outer side, 2 acyl side, 3 side chain; linkers in the order of their positions; H or OH if unused. Non-standard residues stand in square brackets, D forms with d. Groups on a side chain read outwards from the residue. *: point of attachment. C18 diacid = O=C(O)CCCCCCCCCCCCCCCCC(=O)*; γGlu = O=C(O)[C@H](CCC(=O)[*:2])N[*:1]; αMe4Pal = C[C@](N)(Cc1ccncc1)C(=O)O; 4Pal = N[C@@H](Cc1ccncc1)C(=O)O; αMeL = CC(C)C[C@](C)(N)C(=O)O; Orn = NCCC[C@H](N)C(=O)O; AEEA = NCCOCCOCC(=O)O; Aib = CC(C)(N)C(=O)O

How the values were obtained:
human GLP1-R = human GLP1-R (Homo sapiens, UniProt P43220); test: GLP1-R internalization assay in HEK293 cells; format: cell-based; settings: for EC50: HEK293 cells expressing SNAP-GLP-1R, read-out: GLP1R Internalization EC50; for Internalization % TOP: normalized to maximum concentration of GLP-1 (100%)
hGIPR [1] = target: T1, hGIPR (Homo sapiens, UniProt P48546); test: Functional cAMP activation in the presence of 0.1% casein (no HSA); format: cell-based; settings: in the presence of 0.1% casein (no HSA); geometric mean; read-out: Relative cAMP EC50, hGIPR;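 also: intracellular cAMP rise after 30 min at 37 °C read by HTRF against a standard curve, scaled between buffer alone (0%) and top control ligand concentration (100%), four-parameter fit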
T1 sequence (P48546 22-466): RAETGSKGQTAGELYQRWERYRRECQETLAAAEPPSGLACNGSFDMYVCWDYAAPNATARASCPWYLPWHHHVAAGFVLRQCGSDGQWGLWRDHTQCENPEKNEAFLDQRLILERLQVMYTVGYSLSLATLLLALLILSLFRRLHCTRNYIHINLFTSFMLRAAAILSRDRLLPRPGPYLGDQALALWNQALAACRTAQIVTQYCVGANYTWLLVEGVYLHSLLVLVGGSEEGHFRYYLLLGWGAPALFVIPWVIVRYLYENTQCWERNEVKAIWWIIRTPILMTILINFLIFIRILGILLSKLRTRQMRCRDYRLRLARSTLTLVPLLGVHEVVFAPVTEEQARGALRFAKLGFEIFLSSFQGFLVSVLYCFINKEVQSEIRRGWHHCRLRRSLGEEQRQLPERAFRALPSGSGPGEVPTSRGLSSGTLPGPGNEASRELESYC

hGIPR [2] = target: T1, hGIPR; test: Functional cAMP activity in the presence of 1% HSA; format: cell-based; settings: read-out: cAMP Rel EC50, hGIPR
[3] = system: Intestinal organoid from Göttingen minipig jejunum tissue, 2D monolayer; test: Cell based in vitro permeability (Papp) assay; format: in vitro ADME
Summary of the method: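 Papp calculated from LC/MS peptide levels in apical and basal compartments. Basal sampling at 20 min with C10 present, across monolayers grown from dissociated minipig jejunal organoids in transwells.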

hGLP-1R [4] = target: T2, hGLP-1R (Homo sapiens, UniProt P43220); test: Functional cAMP activity in the presence of 1% HSA; format: cell-based; settings: read-out: cAMP Rel EC50, hGLP-1R
hGLP-1R [5] = target: T2, hGLP-1R; test: Functional cAMP activation in the presence of 0.1% casein (no HSA); format: cell-based; settings: in the presence of 0.1% casein (no HSA); geometric mean; read-out: Relative cAMP EC50, hGLP-1R;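 also: intracellular cAMP rise after 30 min at 37 °C read by HTRF, normalized between buffer only (0%) and maximal control ligand (100%), four-parameter variable-slope fit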
human GcgR = human GcgR (Homo sapiens, UniProt P47871); test: Functional cAMP activity in the presence of 1% HSA; format: cell-based; settings: read-out: cAMP Rel EC50, hGcgR
hGcgR = hGcgR (Homo sapiens, UniProt P47871); test: Functional cAMP activation in the presence of 0.1% casein (no HSA); format: cell-based; settings: in the presence of 0.1% casein (no HSA); geometric mean; read-out: Relative cAMP EC50, hGcgR;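 also: intracellular cAMP rise after 30 min at 37 °C, read by HTRF against a cAMP standard curve, scaled from buffer only (0%) to maximal control ligand response (100%)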
[6] = target: Pro-Link-tagged Human GLP-1R (human) (UniProt P43220); test: cell-based or functional assay
Pro-Link-tagged Human GLP-1R (human), sequence (P43220 24-463): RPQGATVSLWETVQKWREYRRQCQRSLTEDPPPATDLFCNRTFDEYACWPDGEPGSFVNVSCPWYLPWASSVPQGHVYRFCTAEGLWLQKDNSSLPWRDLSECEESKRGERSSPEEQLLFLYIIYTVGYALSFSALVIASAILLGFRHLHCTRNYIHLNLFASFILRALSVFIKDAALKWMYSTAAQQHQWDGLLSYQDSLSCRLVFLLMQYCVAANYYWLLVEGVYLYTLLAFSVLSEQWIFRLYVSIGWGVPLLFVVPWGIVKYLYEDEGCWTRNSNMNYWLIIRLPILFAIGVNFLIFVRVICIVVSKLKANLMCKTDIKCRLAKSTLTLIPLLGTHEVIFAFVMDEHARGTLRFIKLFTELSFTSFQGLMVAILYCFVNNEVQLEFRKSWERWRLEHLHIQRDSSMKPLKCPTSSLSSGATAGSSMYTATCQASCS

human GcgR, sequence (P47871 26-477): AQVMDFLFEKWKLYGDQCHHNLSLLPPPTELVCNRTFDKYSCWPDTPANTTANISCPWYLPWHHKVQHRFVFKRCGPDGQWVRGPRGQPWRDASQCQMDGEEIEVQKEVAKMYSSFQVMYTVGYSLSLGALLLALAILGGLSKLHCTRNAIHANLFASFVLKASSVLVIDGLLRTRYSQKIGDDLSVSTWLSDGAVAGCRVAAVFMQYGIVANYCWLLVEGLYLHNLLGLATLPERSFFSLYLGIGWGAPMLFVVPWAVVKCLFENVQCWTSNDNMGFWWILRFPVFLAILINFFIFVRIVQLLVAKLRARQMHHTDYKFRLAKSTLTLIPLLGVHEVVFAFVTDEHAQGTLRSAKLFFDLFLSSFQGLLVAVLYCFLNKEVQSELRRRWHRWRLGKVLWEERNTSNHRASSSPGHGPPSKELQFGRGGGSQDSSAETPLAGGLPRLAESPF
hGcgR, sequence (P47871 26-477): as above
T2 sequence (P43220 24-463): as the sequence (P43220 24-463) above
human GLP1-R, sequence (P43220 24-463): as above

Compound	EC50 (human GLP1-R)	Internalization % TOP (human GLP1-R)	EC50 (hGIPR [1])	EC50 (hGIPR [2])	Relative Papp (Compared to internal standard) [3]	EC50 (hGLP-1R [4])	EC50 (hGLP-1R [5])	EC50 (human GcgR)	EC50 (hGcgR)	% Stimulation Max [6]
CC[C@H](C)[C@H](NC(=O)[C@H](Cc1ccccc1)NC(=O)[C@H](C)NC(=O)C(C)(C)NC(=O)[C@H](CCC(N)=O)NC(=O)[C@H](C)NC(=O)[C@H](CCCCNC(=O)CC[C@H](NC(=O)CC[C@H](NC(=O)CCCCCCCCCCCCCCCCC(=O)O)C(=O)O)C(=O)O)NC(=O)[C@H](CCCCN)NC(=O)[C@H](CC(=O)O)NC(=O)[C@H](CC(C)C)NC(=O)[C@](C)(CC(C)C)NC(=O)[C@H](CCCN)NC(=O)[C@H](CO)NC(=O)[C@H](Cc1ccccc1)NC(=O)[C@H](CC(=O)O)NC(=O)[C@H](CO)NC(=O)[C@@H](NC(=O)[C@H](Cc1ccccc1)NC(=O)[C@@H](NC(=O)CNC(=O)[C@H](CCC(N)=O)NC(=O)C(C)(C)NC(=O)[C@@H](N)Cc1ccc(O)cc1)[C@@H](C)O)[C@@H](C)O)C(=O)N[C@@H](CCC(=O)O)C(=O)N[C@@H](Cc1ccc(O)cc1)C(=O)N[C@@H](CC(C)C)C(=O)N[C@@H](CC(C)C)C(=O)N[C@@H](CCC(=O)O)C(=O)N[C@H](C)C(=O)NCC(=O)N1CCC[C@H]1C(=O)N[C@@H](CO)C(=O)N[C@@H](CO)C(=O)NCC(=O)N[C@@H](C)C(=O)N1CCC[C@H]1C(=O)N1CCC[C@H]1C(=O)N1CCC[C@H]1C(=O)N[C@@H](CO)C(=O)NCC(=O)N[C@H](C(N)=O)[C@@H](C)O [Example 204]	66.4 nM	45.5%	0.181 nM	16.7 nM	0.16	306 nM	2.34 nM	572 nM	6.92 nM	–
H-Y[Aib]QGTFTSDFS[Orn][αMeL]LDKK([γGlu-AEEA-γGlu-C18 diacid])AQ[Aib]AFIEYLLE[Aib]GPSSGAPPPSGS-NH2 [Example 193]	132 nM	50.7%	0.0609 nM	12.7 nM	0.17	473 nM	5.19 nM	1120 nM	4.51 nM	–
H-Y[Aib]QGTFTSD[4Pal]SR[αMeL]LDKK([AEEA-γGlu-C18 diacid])AQ[αMe4Pal]AFIEYLIE[Aib]GESSGAPPPSGS-NH2 [Example 224]	32.2 nM	61.9%	0.114 nM	21.5 nM	0.35	333 nM	1.89 nM	452 nM	1.91 nM	–
H-Y[Aib]QGTFTSDFS[Orn][αMeL]LDKK([AEEA-γGlu-C18 diacid])AQ[Aib]AFIEYLLE[Aib]GHSSGAPPPSGS-NH2 [Example 241]	64.4 nM	37.6%	0.0748 nM	9.36 nM	0.10	264 nM	2.3 nM	543 nM	2.71 nM	–
Tirzepatide (peptide)	–	–	–	–	–	–	–	–	–	10.5%
H-Y[Aib]QGTFTSDFS[Orn][αMeL]LDKK([AEEA-AEEA-γGlu-C18 diacid])AQ[Aib]AFIEYLLE[Aib]GPSSGAPPPSGT-NH2 [Example 165]	57.5 nM	44.5%	0.0956 nM	18.6 nM	0.09	808 nM	6.52 nM	1250 nM	4.47 nM	–
H-Y[Aib]QGTFTSDFS[Orn][αMeL]LDKK([AEEA-γGlu-C18 diacid])AQ[Aib]AFIEWLLEGGPSSGAPPPTGS-NH2 [Example 250]	97 nM	45%	0.154 nM	11.7 nM	0.11	194 nM	2.08 nM	201 nM	3.81 nM	–
H-Y[Aib]QGTFTSDFS[Orn][αMeL]LDKK([AEEA-AEEA-γGlu-C18 diacid])AQ[Aib]AFIEWLLEGGHSSGAPPPSGE-NH2 [Example 169]	178 nM	49.4%	0.209 nM	21.5 nM	0.12	216 nM	6.17 nM	439 nM	11.7 nM	–
